Data from ChEMBL document CHEMBL1136440, “Design and synthesis of novel RXR-selective modulators with improved pharmacological profile” (Bioorg Med Chem Lett, 2003).
“And” between values parts separate entries of the source, which are not always exact repeats. Equal values may be shown once.

Assays:
[1] = biological target: T1, Retinoic acid receptor RXR-alpha (Homo sapiens, UniProt P19793); assay: In vitro antagonist activity against RXR alpha in CV-1 cells; assay type: functional, cell-based, Cercopithecidae
T1 sequence (P19793 whole entry): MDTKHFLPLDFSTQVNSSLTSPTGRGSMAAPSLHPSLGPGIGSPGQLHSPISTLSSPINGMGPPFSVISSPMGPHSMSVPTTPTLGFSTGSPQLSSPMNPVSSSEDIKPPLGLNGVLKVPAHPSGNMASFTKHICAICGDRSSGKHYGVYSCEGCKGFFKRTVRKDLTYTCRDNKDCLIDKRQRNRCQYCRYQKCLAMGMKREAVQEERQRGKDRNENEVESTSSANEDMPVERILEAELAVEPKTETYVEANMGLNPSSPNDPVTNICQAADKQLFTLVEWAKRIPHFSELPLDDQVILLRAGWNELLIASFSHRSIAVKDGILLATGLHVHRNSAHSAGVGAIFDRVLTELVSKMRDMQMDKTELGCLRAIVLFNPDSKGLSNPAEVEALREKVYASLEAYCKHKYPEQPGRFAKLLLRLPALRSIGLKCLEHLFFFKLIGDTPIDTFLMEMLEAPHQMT

[2] = biological target: T2, Retinoic acid receptor alpha (Homo sapiens) (UniProt P10276); assay: Agonist synergy against RAR alpha was tested along with 3 nM TTNPB; assay type: functional; settings: Cercopithecidae
T2 sequence (whole entry): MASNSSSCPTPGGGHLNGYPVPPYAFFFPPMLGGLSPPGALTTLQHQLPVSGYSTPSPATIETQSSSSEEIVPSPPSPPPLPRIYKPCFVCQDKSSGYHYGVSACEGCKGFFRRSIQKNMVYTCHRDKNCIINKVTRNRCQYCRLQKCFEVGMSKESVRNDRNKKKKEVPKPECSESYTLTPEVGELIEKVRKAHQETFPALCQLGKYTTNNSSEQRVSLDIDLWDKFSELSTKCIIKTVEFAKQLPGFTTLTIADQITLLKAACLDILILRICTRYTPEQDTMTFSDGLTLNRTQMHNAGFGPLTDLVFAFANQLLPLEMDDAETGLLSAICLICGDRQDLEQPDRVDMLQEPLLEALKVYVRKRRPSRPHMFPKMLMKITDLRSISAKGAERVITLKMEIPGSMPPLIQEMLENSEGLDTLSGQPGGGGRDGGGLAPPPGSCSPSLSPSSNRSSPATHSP

[3] = biological target: T3, Retinoic acid receptor beta (Homo sapiens, UniProt P10826); assay: Binding affinity against RAR beta receptor using [3H]ATRA as radioligand in CV-1 cells; assay type: cell-based, Cercopithecidae
T3 sequence (P10826 whole entry): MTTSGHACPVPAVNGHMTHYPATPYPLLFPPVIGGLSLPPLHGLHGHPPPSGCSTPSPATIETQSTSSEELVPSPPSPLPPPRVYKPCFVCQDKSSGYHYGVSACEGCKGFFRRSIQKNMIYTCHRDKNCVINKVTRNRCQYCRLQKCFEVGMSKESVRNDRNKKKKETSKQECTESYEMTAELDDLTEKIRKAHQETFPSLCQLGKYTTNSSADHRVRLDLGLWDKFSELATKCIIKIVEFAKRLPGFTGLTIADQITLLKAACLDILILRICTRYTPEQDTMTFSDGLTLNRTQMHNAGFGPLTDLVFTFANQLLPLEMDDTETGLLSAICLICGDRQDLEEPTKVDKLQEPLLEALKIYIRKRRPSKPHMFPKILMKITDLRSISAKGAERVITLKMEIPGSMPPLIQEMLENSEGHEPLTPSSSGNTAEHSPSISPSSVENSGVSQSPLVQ

[4] = biological target: T4, Retinoic acid receptor RXR-beta (Homo sapiens, UniProt P28702); assay: Displacement of [3H]9-cis-RA from RXR beta receptor in CV-1 cells; assay type: cell-based, Cercopithecidae
T4 sequence (P28702 whole entry): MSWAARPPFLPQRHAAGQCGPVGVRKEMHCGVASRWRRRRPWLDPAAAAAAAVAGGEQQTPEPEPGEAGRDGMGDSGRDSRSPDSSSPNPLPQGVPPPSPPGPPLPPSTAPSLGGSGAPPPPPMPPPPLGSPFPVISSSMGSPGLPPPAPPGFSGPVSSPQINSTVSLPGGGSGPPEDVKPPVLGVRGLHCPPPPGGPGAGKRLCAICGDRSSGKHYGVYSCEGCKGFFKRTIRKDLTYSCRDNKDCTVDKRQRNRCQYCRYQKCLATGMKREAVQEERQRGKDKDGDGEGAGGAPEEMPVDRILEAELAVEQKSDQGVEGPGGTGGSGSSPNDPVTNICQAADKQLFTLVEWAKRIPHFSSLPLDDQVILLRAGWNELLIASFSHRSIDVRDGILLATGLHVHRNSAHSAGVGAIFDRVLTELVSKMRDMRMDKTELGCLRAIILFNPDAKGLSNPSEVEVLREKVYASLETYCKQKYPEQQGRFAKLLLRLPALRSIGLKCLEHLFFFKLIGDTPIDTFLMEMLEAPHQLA

[5] = biological target: T5, Retinoic acid receptor alpha (Homo sapiens, UniProt P10276); assay: Binding affinity against RAR alpha receptor using [3H]ATRA as radioligand in CV-1 cells; assay type: cell-based, Cercopithecidae
T5 sequence (P10276 whole entry): T2 sequence (whole entry)

[6] = biological target: T6, Retinoic acid receptor RXR-gamma (Homo sapiens, UniProt P48443); assay: Binding affinity against RXR gamma receptor using [3H]9-cis-RA as radioligand in CV-1 cells; assay type: cell-based, Cercopithecidae
T6 sequence (P48443 whole entry): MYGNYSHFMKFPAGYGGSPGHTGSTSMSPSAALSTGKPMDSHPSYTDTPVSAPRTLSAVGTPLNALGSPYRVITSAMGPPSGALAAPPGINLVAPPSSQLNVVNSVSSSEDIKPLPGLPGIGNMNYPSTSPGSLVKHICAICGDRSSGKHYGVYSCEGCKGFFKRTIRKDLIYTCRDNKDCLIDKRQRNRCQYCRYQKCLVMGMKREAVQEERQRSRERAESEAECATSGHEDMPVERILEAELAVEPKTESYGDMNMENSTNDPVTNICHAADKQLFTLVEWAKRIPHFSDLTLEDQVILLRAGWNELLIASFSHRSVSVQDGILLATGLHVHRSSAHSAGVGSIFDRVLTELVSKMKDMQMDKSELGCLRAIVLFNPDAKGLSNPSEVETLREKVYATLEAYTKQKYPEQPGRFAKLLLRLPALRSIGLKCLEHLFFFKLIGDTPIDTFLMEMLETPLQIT

[7] = biological target: T7, Retinoic acid receptor gamma (Homo sapiens, UniProt P13631); assay: Binding affinity against RAR gamma receptor using [3H]ATRA as radioligand in CV-1 cells; assay type: cell-based, Cercopithecidae
T7 sequence (P13631 whole entry): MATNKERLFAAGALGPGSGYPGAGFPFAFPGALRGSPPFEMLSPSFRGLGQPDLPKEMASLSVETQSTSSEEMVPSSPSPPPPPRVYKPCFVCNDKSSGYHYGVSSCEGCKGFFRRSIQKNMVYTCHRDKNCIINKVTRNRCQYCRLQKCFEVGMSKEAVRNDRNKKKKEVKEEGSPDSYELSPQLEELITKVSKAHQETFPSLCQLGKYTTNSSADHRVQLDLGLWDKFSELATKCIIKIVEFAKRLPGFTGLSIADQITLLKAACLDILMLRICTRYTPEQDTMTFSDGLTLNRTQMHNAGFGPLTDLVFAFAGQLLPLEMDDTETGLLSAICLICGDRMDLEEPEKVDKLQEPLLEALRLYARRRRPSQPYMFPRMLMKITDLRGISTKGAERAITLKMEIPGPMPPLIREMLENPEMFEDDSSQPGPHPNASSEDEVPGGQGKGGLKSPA

[8] = biological target: T8, Peroxisome proliferator-activated receptor gamma (Homo sapiens, UniProt P37231)
T8 sequence (P37231 whole entry): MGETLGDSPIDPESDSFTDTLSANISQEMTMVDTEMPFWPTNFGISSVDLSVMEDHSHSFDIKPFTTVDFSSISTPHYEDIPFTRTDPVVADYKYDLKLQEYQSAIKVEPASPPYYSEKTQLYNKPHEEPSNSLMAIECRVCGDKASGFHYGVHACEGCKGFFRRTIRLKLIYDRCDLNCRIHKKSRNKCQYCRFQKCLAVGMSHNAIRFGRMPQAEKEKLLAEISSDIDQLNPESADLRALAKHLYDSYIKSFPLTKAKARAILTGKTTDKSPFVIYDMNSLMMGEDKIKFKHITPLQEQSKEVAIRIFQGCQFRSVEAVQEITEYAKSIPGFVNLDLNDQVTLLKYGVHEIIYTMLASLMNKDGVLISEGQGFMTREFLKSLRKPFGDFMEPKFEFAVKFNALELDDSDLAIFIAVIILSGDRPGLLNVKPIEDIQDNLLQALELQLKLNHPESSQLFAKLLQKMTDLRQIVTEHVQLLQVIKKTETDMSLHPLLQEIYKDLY
Description: In vitro agonistic activity against PPAR gamma along with 100 nM BRL-49653

[9] = biological target: T8, Peroxisome proliferator-activated receptor gamma; remark: listed apart in the source
Description: In vitro agonist efficacy against PPAR gamma along with 100 nM BRL-49653

[10] = biological target: T1, Retinoic acid receptor RXR-alpha; assay: biochemical
Description: Binding affinity against RXR alpha receptor using [3H]9-cis-RA as radioligand in CV-1 cells

[11] = Tmax value in IRC mice; assay type: ADME, organism-based; settings: mouse, in vivo
[12] = Cmax value in IRC mice; assay type: ADME, organism-based; settings: mouse, in vivo
[13] = Area under curve at 0-8 hr in IRC mice after peroral administration; assay type: ADME, organism-based; design: time < 8 hr, route oral; settings: mouse, in vivo, po

Row | IC50 [1] | Synergy [2] | Ki [3] | Ki [4] | Ki [5] | Ki [6] | Ki [7] | EC50 [8] | EC50 [9] | Ki [10] | Tmax [11] | Cmax [12] | AUC(0-t) at 8 h [13] | Compound
1 | 2.2 nM | 1.1 nM | 2110 nM | 3.9 nM | 4550 nM | 5.6 nM | > 10000 nM | 1.3 nM | 32 nM | 0.8 nM | – | – | – | C/C(=C/C=C/C(C)=C/C(=O)O)c1cc(-c2ccc(F)cc2)cc(C(C)C)c1OCC(F)F
2 | 57.9 nM | 1 nM | 2610 nM | 12.3 nM | 4660 nM | 22.5 nM | > 10000 nM | 16.3 nM | 78 nM | 6.1 nM | – | – | – | C/C(=C/C=C/C(C)=C/C(=O)O)c1cc(C(C)C)cc(-c2ccccc2)c1OCC(F)F
3 | 3.9 nM | 1.6 nM | 3600 nM | 7.4 nM | > 10000 nM | 2.9 nM | > 10000 nM | 0.8 nM | 36 nM | 1 nM | – | – | – | C/C(=C/C=C/C(C)=C/C(=O)O)c1cc(-c2cccc(F)c2)cc(C(C)C)c1OCC(F)F
4 | 5.1 nM | 1.4 nM | 1980 nM | 17.2 nM | 2500 nM | 27.6 nM | > 1000 nM | 2.7 nM | 59 nM | 25.6 nM | – | – | – | CCCOc1c(\C(C)=C/C=C/C(C)=C/C(=O)O)cc(C(F)(F)C(F)(F)F)cc1C(C)C
5 | 4.6 nM | 0.8 nM | 1960 nM | 2.4 nM | > 10000 nM | 2.8 nM | > 10000 nM | 2.7 nM | 40 nM | 2.6 nM | – | – | – | C/C(=C/C=C/C(C)=C/C(=O)O)c1cc(-c2cc(F)cc(F)c2)cc(C(C)C)c1OCC(F)F
6 | 13.7 nM | 1.5 nM | 5330 nM | 5.2 nM | 6590 nM | 40.3 nM | > 10000 nM | 2.7 nM | 51 nM | 28.7 nM | – | – | – | CCC(C)(C)c1cc(\C(C)=C(F)/C=C/C(C)=C/C(=O)O)c(OCC(F)F)c(C(C)(C)CC)c1
7 | – | – | 9510 nM | 4 nM | 54 nM | 84 nM | > 9510 nM | – | – | – | 1 h | 760 ng/mL and 1.81 µM | 3800 ng·h/mL | C/C(=C/C=C/C(C)=C/C(=O)O)c1cc(C(C)(C)C)cc(C(C)(C)C)c1OCC(F)F
8 | 7.2 nM | 1.5 nM | 6010 nM | 15.5 nM | 4660 nM | 12.4 nM | > 10000 nM | 12.2 nM | 30 nM | 4.1 nM | – | – | – | CC(/C=C/C(F)=C(/C)c1cc(C(C)(C)C)cc(C(C)(C)C)c1OCC(F)(F)F)=C\C(=O)O
9 | – | 6.9 nM | – | 75 nM | – | 12 nM | – | – | – | – | – | – | – | Cc1cc2c(cc1C1(c3ccc(C(=O)O)cn3)CC1)C(C)(C)CCC2(C)C
10 | 4.7 nM | 1.5 nM | 4620 nM | 24.4 nM | 3730 nM | 27.8 nM | > 10000 nM | 4.1 nM | 47 nM | 4.4 nM | – | – | – | CCCCOc1c(\C(C)=C(F)/C=C/C(C)=C/C(=O)O)cc(C(C)C)cc1C(C)C
11 | 4 nM | 1.2 nM | 2270 nM | 8.2 nM | 2750 nM | 45.7 nM | > 10000 nM | 7.4 nM | 71 nM | 21.4 nM | – | – | – | CCCCOc1c(\C(C)=C/C=C/C(C)=C/C(=O)O)cc(C(F)(F)C(F)(F)F)cc1C(C)C

Row | Compound | IC50 [1] | Synergy [2] | Ki [3] | Ki [4] | Ki [5] | Ki [6] | Ki [7] | EC50 [8] | EC50 [9] | Ki [10] | Tmax [11] | Cmax [12] | AUC(0-t) at 8 h [13]
12 | C/C(=C/C=C/C(C)=C/C(=O)O)c1cc(-c2cccs2)cc(C(C)C)c1OCC(F)F | 1.9 nM | 1.4 nM | 2110 nM | 3.9 nM | 4550 nM | 5.6 nM | > 10000 nM | 4.7 nM | 15 nM | 0.8 nM | – | – | –
13 | CC(/C=C/[C@@H]1C[C@]1(C)c1ccc2c(c1)C(C)(C)CCC2(C)C)=C\C(=O)O [IRX-4204] | – | 1.9 nM | – | – | – | – | – | 8.6 nM | 54 nM | – | – | – | –
